According to PubChem BioAssay AID1277 (The Scripps Research Institute Molecular Screening Center, 2008):
The source made the active and inactive calls. The rule behind the calls is not given here.

These molecules were tested against Neuropeptide Y receptor type 1 (Homo sapiens) (UniProt P25929) (assay: NPY-Y1 receptor antagonist potency, dose response, cell-based (AID 1277)). Details: NPY-Y1 expressing cells, antagonist mode.
Neuropeptide Y receptor type 1 (Homo sapiens), sequence (P25929 whole entry, looked up): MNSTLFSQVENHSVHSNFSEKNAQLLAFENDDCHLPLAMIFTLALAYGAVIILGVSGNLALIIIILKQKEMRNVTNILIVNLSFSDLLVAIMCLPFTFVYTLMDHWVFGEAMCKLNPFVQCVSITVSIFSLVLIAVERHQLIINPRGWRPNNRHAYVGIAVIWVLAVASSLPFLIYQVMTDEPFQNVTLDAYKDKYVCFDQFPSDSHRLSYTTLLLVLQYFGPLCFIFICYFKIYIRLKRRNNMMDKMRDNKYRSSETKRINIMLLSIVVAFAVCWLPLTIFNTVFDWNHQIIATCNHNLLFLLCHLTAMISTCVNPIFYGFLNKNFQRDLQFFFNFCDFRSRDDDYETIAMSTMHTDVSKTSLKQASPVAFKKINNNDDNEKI

IC50, inactive:
Cn1ccnc1C1CCCCN1Cc1nc(-c2ccc3c(c2)OCO3)no1 (centres undefined) < 35 µM
Cc1cc(C(=O)CSc2nc3ccccc3c(=O)n2C)c(C)n1CC1CCCO1 (centres undefined) < 35 µM
COc1cccc(Oc2cn[nH]c2-c2ccc(O)cc2O)c1 < 35 µM
CC(C)CC(c1nnnn1C1CCCC1)N1CCN(c2ccccc2F)CC1 (centres undefined) < 35 µM
